In ChEMBL document CHEMBL3112412, “Synthesis and receptor binding studies of some new arylcarboxamide derivatives as sigma-1 ligands” (Bioorg Med Chem Lett, 2014) one finds Ki and Ratio Ki data, which are given here for 16 compounds.

Assay [1] addresses Sigma non-opioid intracellular receptor 1 (Rattus norvegicus, UniProt Q9R0C9). Description: Displacement of [3H](+)-pentazocine from sigma 1 receptor in rat liver homogenate after 120 mins by liquid scintillation counting. In kind it is tissue-based. (Displacement assays read how much labelled ligand stays bound in the presence of the test substance.)
Assay [2] in a line: Displacement of [3H]-DTG from sigma 2 receptor in guinea pig brain after 120 mins by liquid scintillation counting. Details: species or system Cavia porcellus.
Assay [3] in a line: Selectivity ratio of Ki for sigma 2 receptor in guinea pig brain to Ki for sigma 1 receptor in rat liver homogenate. It counts as tissue-based.

pKi: −log10 of the molar value.

Chain of Sigma non-opioid intracellular receptor 1 (Q9R0C9 whole entry): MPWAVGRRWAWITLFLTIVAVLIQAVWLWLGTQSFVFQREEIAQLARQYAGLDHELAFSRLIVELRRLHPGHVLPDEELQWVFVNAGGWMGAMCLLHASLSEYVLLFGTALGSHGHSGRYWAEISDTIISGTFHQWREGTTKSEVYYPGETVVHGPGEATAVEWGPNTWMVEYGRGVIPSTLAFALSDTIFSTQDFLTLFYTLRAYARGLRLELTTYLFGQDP

Usually pKi stands for −log10 of the Ki, conventionally taken in molar units. A low value points to a large Ki. Take `CCN(CC1CCN(Cc2ccc(Cl)cc2)CC1)C(=O)c1ccc(Cl)cc1`: the pKi in assay [1] is 7.04; in assay [2], less than 6.00. In addition, the Ratio Ki in assay [3] is more than 11.

`CCN(CC1CCN(Cc2ccc(Cl)cc2)CC1)C(=O)c1ccc2ccccc2c1` showed a pKi in assay [1] of 6.65.

As to `CCN(CC1CCN(Cc2ccccc2)CC1)C(=O)c1ccco1`, the pKi was 7.67 in assay [1] and less than 5.52 in assay [2]. Besides, in assay [3], the Ratio Ki is more than 140.

As for `CCN(CC1CCN(Cc2ccccc2)CC1)C(=O)c1cccc2ccccc12`, the pKi in assay [1] was 6.79; in assay [2] it was less than 6.00. In assay [3], the Ratio Ki is more than 6.

Take `CCN(CC1CCN(Cc2ccccc2)CC1)C(=O)c1ccc2ccccc2c1`: the pKi in assay [1] is 6.70; in assay [2], 6.57. Moreover, the Ratio Ki in assay [3] turned out to be 1.36.

In turn, `CCN(CC1CCN(Cc2ccc(Cl)cc2)CC1)C(=O)c1ccc(-c2ccccc2)cc1` gave a pKi in assay [1] of 6.43.

As for `CCN(CC1CCN(Cc2ccccc2)CC1)C(=O)c1ccc(OC)cc1`, in assay [1], the negative-log Ki (pKi) is 6.72.

`CCN(CC1CCN(Cc2ccc(Cl)cc2)CC1)C(=O)c1ccco1`: the results for the pKi in assay [1] and in assay [2] were 7.87 and less than 6.30, respectively. For the same compound, the Ratio Ki in assay [3] is more than 40.

In the case of `CCN(CC1CCN(Cc2ccc(Cl)cc2)CC1)C(=O)c1ccc(OC)cc1`, the results for the pKi in assay [1] and in assay [2] were 6.66 and 6.55, respectively. In assay [3], the Ratio Ki was 1.3.

Regarding `CCN(CC1CCN(Cc2ccc(Cl)cc2)CC1)C(=O)c1cccc2ccccc12`, the pKi was 6.67 in assay [1] and less than 6.00 in assay [2]. Further, the Ratio Ki in assay [3] was more than 4.

Turning to `CCN(CC1CCN(Cc2ccccc2)CC1)C(=O)c1ccc(Cl)cc1`, the figures for the pKi in assay [1] and in assay [2] were 7.23 and less than 6.00, respectively. In addition, in assay [3], the Ratio Ki is more than 17.

Regarding `CCN(CC1CCN(Cc2ccccc2)CC1)C(=O)c1ccc(-c2ccccc2)cc1`, the pKi in assay [1] is 6.52; in assay [2] it was less than 6.30. In assay [3], the Ratio Ki is more than 1.

Turning to `CCN(CC1CCN(Cc2ccc(Cl)cc2)CC1)C(=O)c1ccc(C)cc1`, the pKi in assay [1] was 6.85; in assay [2], less than 6.30. In assay [3], the Ratio Ki was more than 3.

With `CCN(CC1CCN(Cc2ccccc2)CC1)C(=O)c1ccccc1`, the pKi in assay [1] is 7.18.

In assay [1], `CCN(CC1CCN(Cc2ccc(Cl)cc2)CC1)C(=O)c1ccccc1` showed a pKi of 6.81.

With `CCN(CC1CCN(Cc2ccccc2)CC1)C(=O)c1ccc(C)cc1`, the pKi was 6.80 in assay [1] and less than 6.30 in assay [2]. Further, the Ratio Ki in assay [3] was more than 3.
